The test system of this assay is P. falciparum 3D7 growth, pLDH absorbance. In words: P. falciparum 3D7 growth inhibition, dose response, strain 3D7 (AID 2305).

Where “and” joins values, the source holds several entries; their conditions need not be identical. Equal entries are not always repeated.

By IC50 is commonly meant the concentration needed to halve the response being measured. In the case of `CC(Oc1cccc(Cl)c1)C(=O)N1CCc2ccccc21` (stereo unspecified), the IC50 came to 510 nM.

For the compound `O=C(/C=C/c1ccccc1F)NC1CCC(CCN2CCc3ccc(-c4cccnc4)cc3CC2)CC1` (stereo unspecified), the IC50 came to 900 nM. For `COc1cccc(-c2cc(C(=O)NC3CCC(N4CCC(c5ccccc5C)CC4)CC3)[nH]n2)c1` (stereo unspecified) the value was 1120 nM; for `Cc1cc(-c2ccc(CNC3Cc4ccccc4C3)cc2)ccc1S(=O)(=O)NCCN1CCCC1`, 700 nM.

`Cc1cc(N[C@@H](CC(C)C)C(=O)Nc2ccccc2)nc(NCc2ccccc2C)n1` showed an IC50 of 780 nM. For `Cc1cc(NC(=O)c2cccs2)ccc1OC1CCN(Cc2ccccc2)CC1` the value was 870 nM; for `COc1ccc2ncc(Cl)c([C@H](O)CN3CCC(NCc4cc5c(cn4)OCCO5)CC3)c2c1`, 120 nM. To `C=CCN(c1ccc(OC)cc1)S(=O)(=O)c1ccc(Cl)c(C(=O)Nc2cccc(C#N)c2)c1` belongs 580 nM; to `CN(CC1CCC(NC(=O)/C=C/c2ccc(Cl)c(Cl)c2)CC1)C1CCC(c2c[nH]c3ccccc23)CC1` (stereo unspecified), 840 nM; to `Cc1cccc(-c2cccc3c(NC(=O)N4CCc5cc6nccc(N7CCN8CCC[C@H]8C7)c6cc54)cccc23)n1`, 920 nM.

Compound `Cc1cccc2[nH]c(-c3ccc(-c4ccc(CN5CCN(C6CCN(C)CC6)CC5)cc4)s3)nc12` displayed an IC50 of 140 nM. Regarding `CCc1cn2c3c(cc(C(=O)N[C@@H](Cc4ccccc4)[C@H](O)CNC4CCOCC4)cc13)N(C(C)C)S(=O)(=O)CC2`, the IC50 is 80 nM. Take `Cc1ccccc1Cc1cccc(/N=C(\N)Nc2ccc(Cl)cc2)n1`: the IC50 amounted to 680 nM. To `Cc1ccccc1C1CCN(C2CCC(NC(=O)/C=C/c3cccc(Cl)c3F)CC2)CC1` (stereo unspecified) belongs 1140 nM; to `Cc1cc(C2CCN(CCCCNC(=O)c3ccc(NC(=O)c4ccc(Cl)cc4)cc3)CC2)c(C)cc1OCc1ccccn1`, 800 nM; to `Ic1cc(Nc2ncnc3ccsc23)ccc1OCc1ccccc1`, 770 nM. To `CC(=O)c1cccc(NC(=O)NC2CCN(CCCCCNC(=O)/C=C/c3ccc(Cl)c(Cl)c3)CC2)c1` belongs 840 nM; to `CN(c1cc(NC(=O)c2ccccc2)ccn1)C1CCN(Cc2cccc(F)c2)CC1`, 740 nM; to `O=C(NC1CCC(CCN2Cc3cccc(F)c3C2)CC1)c1cccc(-c2cccnc2)c1` (stereo unspecified), 300 nM. For `OC1(CNCc2ccccc2)CCN(CCc2c[nH]c3ccc(F)cc23)CC1` the value was 710 nM; for `O=C(c1cccs1)N1CCN(c2ccc([N+](=O)[O-])c(NC3CC3)c2)CC1`, 770 nM; for `COc1ccc2nccc([C@@H](O)CN3CCC(NCc4cc5ccccc5o4)CC3)c2c1`, 660 nM. Consider `CCN(CC)CCN(Cc1ccc(-c2ccc(C(F)(F)F)cc2)cc1)C(=O)Cn1cc(Cc2cnn(C)c2)c(=O)nc1/C=C/c1cccc(F)c1F`, for which the IC50 came to 960 nM.

Take `COC(=O)c1cc(OC2CCOC2=O)cc2c1OC(C)(C)O2` (stereo unspecified): the half-inhibitory concentration (IC50) worked out at 810 nM.

`Nc1ccnc(N2CCC(CCOc3ccnc4cc(Cl)ccc34)CC2)c1` gave an IC50 of 1160 nM. Turning to `CCCCCCCN1CCC(CCNc2ccnc3ccc(OC)cc23)CC1`, the IC50 was found to be 950 nM. Compound `COc1cccc(C2CCCN(CCCCNC(=O)c3ccc(NC(=O)c4ccc(Cl)cc4)cc3)C2)c1` (stereo unspecified) yielded an IC50 of 860 nM.

The compound `Cn1cnc2c(SCc3ccccc3OCc3ccccc3)ncnc21` came in with an IC50 of 920 nM.

`O=C(Nc1ccc(C(F)(F)F)cc1)c1cccc(S(=O)(=O)NCC2CCCN(CC3CCCCC3)C2)c1` (stereo unspecified) had a half-maximal inhibitory concentration (IC50) of 750 nM. To `COc1cc(NCC2(CNCc3cn(Cc4ccccc4)c4ccccc34)CCCCC2)nc2ccccc12` belongs 950 nM; to `COc1ccc(S(=O)(=O)NC2CCN(c3ccc(C(F)(F)F)cc3NC(=O)OCC(C)C)CC2)cc1`, 1220 nM; to `COc1ccc2c(c1)CCCC2C(C)NCC(O)c1cccc(C(F)(F)F)c1` (stereo unspecified), 350 nM. Turning to `N#Cc1cccc(NC(=O)Nc2ccc(-c3csc(-c4nc5ccccc5[nH]4)c3)cc2)c1`, the half-inhibitory concentration (IC50) came out at 150 nM. With `NCc1cccc(-c2ccccc2CNC2CCN(Cc3ccccc3)CC2)c1`, the IC50 is 770 nM. In turn, `O=C(/C=C/c1ccc(Cl)c(Cl)c1)NC1CCN(CCNC(=O)c2cccc(Cl)c2)CC1` came in with an IC50 of 550 nM. For `CCc1nnc2sc(-c3cccc(NC(=O)c4ccc(C)c([N+](=O)[O-])c4)c3)nn12` the value was 1410 nM; for `O=C(/C=C/c1ccc(Cl)c(Cl)c1)NC1CCC(CN2CCC(c3c[nH]c4cc(C(F)(F)F)ccc34)CC2)CC1` (stereo unspecified), 900 nM and 280 nM; for `O=C(Nc1ccc(-c2csc(-c3nc4ccccc4[nH]3)c2)cc1)Nc1ccc(Cl)c(Cl)c1`, 400 nM.

In turn, `COc1cc(C(C)C)nc2ccc(NC(=O)c3ccc(C(=O)Nc4ccc5nc(C(C)C)cc(OC)c5c4)cc3)cc12` gave an IC50 of 580 nM. Compound `c1ccc(CNc2cc(-c3ccccn3)nc(-c3ccccn3)n2)cc1` had an IC50 of 300 nM. To `COc1cc(Cc2cnc(N)nc2N)cc(OCCCCNS(=O)(=O)C(F)(F)F)c1OC` belongs 1040 nM; to `CCC[C@@H]([C@@H](CC(C)C)C(=O)N[C@H](C(=O)Nc1nccs1)C(C)(C)SCCNC(=O)OCC)N(O)C=O`, 170 nM. To `NC1CCN(Cc2cccc(-c3ccc(-c4nc5ccc(C(F)(F)F)cc5[nH]4)cc3)c2)C1` (stereo unspecified) belongs 700 nM; to `CC(C)(C)NC(=O)COC(=O)c1c2c(nc3ccccc13)C(=Cc1ccc3c(c1)OCO3)CCC2`, 740 nM. As for `NC(N)=NC(=O)Nc1cc(Cl)c(Cl)c(C(F)(F)F)c1`, the 50% inhibitory concentration (IC50) was determined as 610 nM. To `COCCn1c(-c2cccc(Cl)c2)nn(-c2ccc([N+](=O)[O-])cc2C#N)c1=S` belongs 180 nM; to `COc1ccc2nc(Nc3nc(-c4ccccn4)cs3)sc2c1`, 1120 nM. For `COC(=O)c1cccc(CNCc2cccc(-c3ccc(-c4nc5c(C)cccc5[nH]4)s3)c2)c1` the value was 210 nM. The compound `O=C(C=Cc1ccc(Cl)c(Cl)c1)NCCCCCN1CCC(CCCNC(=O)c2sc3ccccc3c2Cl)CC1` showed an IC50 of 400 nM. `Cc1noc(C)c1-c1cccc(CNCc2ccc(-c3ccc(-c4nc5ccc(F)cc5[nH]4)s3)cc2)c1` showed an IC50 of 420 nM. For `Nc1nccc(-c2ccc3c(-c4cccc(F)c4)cnc(N)c3c2)n1` the value was 1020 nM; for `CC(C)(C)SCC(O)Cn1c2ccc(Br)cc2c2cc(Br)ccc21` (stereo unspecified), 1000 nM; for `c1ccc2[nH]c(CN(Cc3nc4ccccc4[nH]3)Cc3nc4ccccc4[nH]3)nc2c1`, 670 nM. `Cc1cc(N[C@@H](Cc2ccccc2)C(=O)NCCOc2ccccc2)nc(NCCc2ccccc2)n1`: the IC50 is 1030 nM. To `CCc1cn2c3c(cc(C(=O)N[C@@H](Cc4ccccc4)[C@H](O)CNC4CCCCC4)cc13)N(C)S(=O)(=O)C2` belongs 90 nM; to `CCOc1ccc(N2C(N)=NC(N)=NC2(C)C)cc1`, 260 nM; to `CCOCn1c(-c2ccccc2)cc2c3c(N)nc(N)nc3ccc21`, 190 nM. As to `COc1ccccc1NC(=O)Nc1ccc(-c2ccc(-c3nc4ccc(C(F)(F)F)cc4[nH]3)cc2)cc1`, the IC50 is 540 nM. For `Fc1ccc(-c2cncc(Nc3ccncc3)n2)cc1` the value was 1320 nM; for `C[C@H](NC(=O)[C@H](CCCCNC(=O)OC(C)(C)C)NC(=O)OC(C)(C)c1ccc(-c2ccccc2)cc1)C(=O)OCc1ccccc1`, 180 nM. On to `CC(C)NCc1ccc(-c2ccc(NC(=O)c3cccc(C#N)c3)cc2)cc1`, for which the IC50 amounted to 650 nM. Regarding `COc1ccc(CC(C)NCC(O)c2ccc(Cl)c(Cl)c2)cc1` (stereo unspecified), the IC50 is 720 nM.

`COc1ccc(-c2ccc([N+](=O)[O-])cc2C(=O)NCC(C)Oc2ccc(C(F)(F)F)cc2)cc1` (stereo unspecified) showed an IC50 of 550 nM.

Turning to `CCCC(CNCc1cccc(OC(F)(F)C(F)F)c1)CNc1cc(=O)c2ccccc2[nH]1` (stereo unspecified), the IC50 was 590 nM. For `FC(F)(F)c1ccc2nc(-c3ccc(-c4cccc(CNCC5CCCO5)c4)s3)[nH]c2c1` (stereo unspecified) the value was 370 nM; for `O=C(Nc1cccc(C(F)(F)F)c1)c1cccc(S(=O)(=O)NC2CCCN(CC3CCCCC3)C2)c1` (stereo unspecified), 860 nM. For `O=C(Nc1cccc(Cl)c1Cl)NC1CCN(Cc2cccc(O)c2)CC1` the value was 800 nM.

In turn, `Cc1cccc(-c2nc(Nc3ccncc3)c3cc(N(C)C)ccc3n2)n1` came in with an IC50 of 710 nM. Regarding `Cc1cccc2[nH]c(-c3cccc(-c4cccc(CNCC5CCCO5)c4)c3)nc12` (stereo unspecified), the IC50 worked out at 600 nM. To `COc1cc(CNC[C@@H](O)[C@H](Cc2ccccc2)NC(=O)c2cc(C3CCCC3)cc(N3CCCC3=O)c2)cc(OC)c1` belongs 220 nM.

With `COc1ccc(OCc2ccccn2)c(C2CCN(CCCCNC(=O)c3ccc(NC(=O)c4ccc(Cl)cc4)cc3)CC2)c1`, the IC50 was 760 nM. `CN(C)CCNC(=O)c1cc2c(-c3ccc(Cl)cc3)nn(C)c2s1`: the IC50 is 670 nM. Consider `CCCCCCCN1CC[C@@H](C[C@H](N)Cc2ccnc3ccc(OC)cc23)[C@@H](CC)C1`, for which the IC50 was 1070 nM. In the case of `COc1cc(Cc2cnc(N)nc2N)cc(OCCCCCCN2C(=O)c3ccccc3C2=O)c1OC`, the IC50 was 1100 nM. For `CN(C)CCNCc1ccc(-c2ccc3c(Nc4ccc(Oc5ccccc5)cc4)ccnc3c2)o1` the value was 280 nM; for `O=C(Nc1ccccc1OC(F)(F)F)NC1CCC(CN2CCC(c3c[nH]c4ccccc34)CC2)CC1` (stereo unspecified), 370 nM and 800 nM. For `Cc1cc(N[C@@H](Cc2ccccc2)C(=O)NCc2cccc(F)c2)nc(NCC2CCCCC2)n1` the value was 850 nM.

In turn, `CCCCc1ccc2[nH]cc(C3=CCN(C)CC3)c2c1Br` returned an IC50 of 630 nM.

Compound `CCc1c(CCNCCCCCNCCc2ccc(OC)c(OC)c2CC)ccc(OC)c1OC` had an IC50 of 1110 nM.

The compound `CCN(CC(C)O)C(=O)c1ccc(-c2cccc(-c3nc4c(C)cccc4[nH]3)c2)cc1` (stereo unspecified) gave an IC50 of 640 nM.

Consider `N#Cc1cccc(NC(=O)Nc2cccc(-c3cccc(-c4nc5ccc(F)cc5[nH]4)c3)c2)c1`, for which the 50% inhibitory concentration (IC50) was 230 nM. To `N#Cc1ccc(C=Cc2nccc3c2[nH]c2ccccc23)cc1` belongs 640 nM; to `CCCCCCNc1cc(C)nc(/N=C(\N)Nc2cccc(C(F)(F)F)c2)n1`, 740 nM; to `Cc1cc(NCCc2cccc(F)c2)nc(/N=C(\N)Nc2cccc(C(F)(F)F)c2)n1`, 150 nM. `COc1ccc(CNCc2ccc(-c3ccc(-c4nc5c(C)cccc5[nH]4)s3)cc2)cc1`: the IC50 is 180 nM. In turn, `COc1ccc(-c2cnc(N)nc2N)cc1Cl` had an IC50 of 1400 nM.

(Values after PubChem BioAssay AID2305 (GlaxoSmithKline (GSK), 2010).)
